# According to patent US12343326B2, “Psychoactive medicines and their use for treating psychiatric and neurological conditions and disorders” (Transcend Therapeutics, Inc., priority 2021, dated 2025):
# Columns and labels:
# [1] = system: rats; test: Open field test (OFT); assay type: in vivo, rat; conditions: for time spent in the center of the open field vs. vehicle: single dose 5 or 15 mg/kg IP (text), 5-30 mg/kg (FIG. 11A), 30 minutes before testing
# Protocol: This behavioral assay, also widely used as an anxiety paradigm, capitalizes on a rodent's innate fear of brightly lit open spaces, which are assumed to induce fear or anxiety. Rodents spend more time hugging the walls of the open field during the test, and these effects correlate to underlying brain regions and mechanisms.
# Method: Consecutive beam breaks and/or video-tracking of time spent in the center versus periphery of the open field are measured. Also measured are parameters such as distance traveled and ambulatory activity (horizontal and vertical) for the duration of the test session.
# The open field test (OFT) capitalizes on a rodent's innate fear of open spaces to assess anxiety-like behavior. More time spent in the center of an open field reflects an anxiolytic (anti-anxiety) effect.
# Locomotor activity was also measured in the OFT.
# To investigate whether MBDB has an anti-anxiety (anxiolytic) effect, rats were dosed with MBDB (0.5-30 mg/kg, IP) or vehicle (saline) and 30-minutes later were tested in the open field for 30 minutes. This anxiety test capitalizes on a rodents' innate fear of wide-open spaces and propensity to hug the walls when placed into the open field. Therefore, a drug that increases the time spent in the center of the open field has anxiolytic activity and predicts utility for treating anxiety in humans.
# [2] = system: gene expression in amygdala, frontal cortex, hippocampus; test: RNA-sequencing of brain areas after a single dose; assay type: in vivo, rat; conditions: 10 mg/kg IP each
# [3] = biological target: 168 GPCRs (Homo sapiens, UniProt O14842); test: β-arrestin based GPCR screen (PathHunter / GPCRmax), agonist mode; assay type: cell-based; design: host or cells: PathHunter cell lines
# Protocol: (§1) For agonist determination, cells were incubated with sample to induce response. […] Vehicle concentration was 1%.
# [4] = biological target: 168 GPCRs (Homo sapiens, UniProt P07550); test: as above; assay type: cell-based; design: host or cells: PathHunter cell lines; conditions: ADRB2, Agonist
# 168 GPCRs (Homo sapiens, UniProt P07550), sequence (P07550 whole entry): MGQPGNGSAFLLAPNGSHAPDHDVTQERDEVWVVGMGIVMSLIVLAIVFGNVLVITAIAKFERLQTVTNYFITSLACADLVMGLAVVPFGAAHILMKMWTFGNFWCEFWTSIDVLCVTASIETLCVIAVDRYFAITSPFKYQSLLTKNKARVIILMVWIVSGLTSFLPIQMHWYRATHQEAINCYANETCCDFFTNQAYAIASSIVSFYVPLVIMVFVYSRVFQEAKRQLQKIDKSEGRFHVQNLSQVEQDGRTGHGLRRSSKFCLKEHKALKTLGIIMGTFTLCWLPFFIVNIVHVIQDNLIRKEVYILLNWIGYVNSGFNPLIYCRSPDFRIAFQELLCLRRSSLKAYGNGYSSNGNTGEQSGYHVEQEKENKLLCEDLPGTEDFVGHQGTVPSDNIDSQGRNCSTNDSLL
# Protocol: as §1
# [5] = biological target: 168 GPCRs (Homo sapiens, UniProt P16473); test: as above; assay type: cell-based; design: host or cells: PathHunter cell lines; conditions: TSHR(L)
# 168 GPCRs (Homo sapiens, UniProt P16473), sequence (P16473 21-764): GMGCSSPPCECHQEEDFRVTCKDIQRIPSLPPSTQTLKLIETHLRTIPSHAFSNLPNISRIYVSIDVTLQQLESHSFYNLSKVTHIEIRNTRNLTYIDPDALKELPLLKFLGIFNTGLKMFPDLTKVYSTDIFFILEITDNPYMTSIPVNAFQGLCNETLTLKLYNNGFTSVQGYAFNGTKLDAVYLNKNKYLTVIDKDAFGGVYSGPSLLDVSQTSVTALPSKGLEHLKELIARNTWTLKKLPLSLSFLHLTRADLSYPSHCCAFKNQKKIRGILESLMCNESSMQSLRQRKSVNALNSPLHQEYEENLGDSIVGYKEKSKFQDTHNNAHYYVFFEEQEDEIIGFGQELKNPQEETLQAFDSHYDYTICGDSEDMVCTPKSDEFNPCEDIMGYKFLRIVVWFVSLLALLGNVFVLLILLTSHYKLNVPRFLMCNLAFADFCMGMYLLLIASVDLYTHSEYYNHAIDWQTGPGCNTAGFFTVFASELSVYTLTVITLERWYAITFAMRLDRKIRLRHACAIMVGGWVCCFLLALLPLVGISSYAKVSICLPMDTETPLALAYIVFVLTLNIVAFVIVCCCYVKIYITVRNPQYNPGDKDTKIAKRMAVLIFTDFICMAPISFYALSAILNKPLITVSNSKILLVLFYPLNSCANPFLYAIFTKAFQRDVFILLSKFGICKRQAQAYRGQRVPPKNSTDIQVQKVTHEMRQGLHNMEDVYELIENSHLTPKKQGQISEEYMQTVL
# Protocol: as §1
# [6] = biological target: 168 GPCRs (Homo sapiens, UniProt P21730); test: as above; assay type: cell-based; design: host or cells: PathHunter cell lines; conditions: C5AR1, Agonist
# 168 GPCRs (Homo sapiens, UniProt P21730), sequence (P21730 whole entry): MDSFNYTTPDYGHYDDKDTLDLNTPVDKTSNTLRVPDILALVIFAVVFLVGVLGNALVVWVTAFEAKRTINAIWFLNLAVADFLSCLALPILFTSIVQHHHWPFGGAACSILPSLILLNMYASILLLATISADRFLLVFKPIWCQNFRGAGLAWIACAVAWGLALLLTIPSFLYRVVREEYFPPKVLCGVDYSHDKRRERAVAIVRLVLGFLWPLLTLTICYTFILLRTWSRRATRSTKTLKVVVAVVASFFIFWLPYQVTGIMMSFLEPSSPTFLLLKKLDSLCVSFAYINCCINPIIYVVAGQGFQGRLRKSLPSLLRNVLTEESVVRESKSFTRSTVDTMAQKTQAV
# Protocol: as §1
# [7] = biological target: 168 GPCRs (Homo sapiens, UniProt P25024); test: as above; assay type: cell-based; design: host or cells: PathHunter cell lines
# Protocol: as §1
# [8] = biological target: 168 GPCRs (Homo sapiens, UniProt P28566); test: as above; assay type: cell-based; design: host or cells: PathHunter cell lines; conditions: HTR1E
# 168 GPCRs (Homo sapiens, UniProt P28566), sequence (P28566 whole entry): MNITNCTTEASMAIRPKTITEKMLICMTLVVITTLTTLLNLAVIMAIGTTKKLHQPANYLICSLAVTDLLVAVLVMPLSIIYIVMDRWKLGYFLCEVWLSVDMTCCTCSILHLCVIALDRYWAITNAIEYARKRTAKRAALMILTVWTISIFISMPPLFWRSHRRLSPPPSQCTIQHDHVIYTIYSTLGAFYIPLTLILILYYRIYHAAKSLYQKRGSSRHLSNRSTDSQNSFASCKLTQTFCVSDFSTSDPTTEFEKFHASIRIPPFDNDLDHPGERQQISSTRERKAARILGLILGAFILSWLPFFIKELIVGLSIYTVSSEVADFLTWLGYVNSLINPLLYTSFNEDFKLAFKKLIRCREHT
# Protocol: as §1
# [9] = biological target: 168 GPCRs (Homo sapiens, UniProt P30874); test: as above; assay type: cell-based; design: host or cells: PathHunter cell lines
# 168 GPCRs (Homo sapiens, UniProt P30874), sequence (P30874 whole entry): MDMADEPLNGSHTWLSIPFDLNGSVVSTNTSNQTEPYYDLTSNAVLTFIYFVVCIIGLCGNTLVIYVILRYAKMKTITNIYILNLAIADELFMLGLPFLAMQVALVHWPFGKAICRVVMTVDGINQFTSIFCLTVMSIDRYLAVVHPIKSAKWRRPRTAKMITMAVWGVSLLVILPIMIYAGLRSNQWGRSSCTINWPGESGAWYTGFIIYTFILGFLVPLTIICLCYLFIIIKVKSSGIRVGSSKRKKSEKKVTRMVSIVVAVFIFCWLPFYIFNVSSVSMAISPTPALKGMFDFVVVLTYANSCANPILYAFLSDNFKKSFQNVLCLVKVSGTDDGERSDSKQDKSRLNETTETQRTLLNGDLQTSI
# Protocol: as §1
# [10] = biological target: 168 GPCRs (Homo sapiens, UniProt P41231); test: as above; assay type: cell-based; design: host or cells: PathHunter cell lines
# 168 GPCRs (Homo sapiens, UniProt P41231), sequence (P41231 whole entry): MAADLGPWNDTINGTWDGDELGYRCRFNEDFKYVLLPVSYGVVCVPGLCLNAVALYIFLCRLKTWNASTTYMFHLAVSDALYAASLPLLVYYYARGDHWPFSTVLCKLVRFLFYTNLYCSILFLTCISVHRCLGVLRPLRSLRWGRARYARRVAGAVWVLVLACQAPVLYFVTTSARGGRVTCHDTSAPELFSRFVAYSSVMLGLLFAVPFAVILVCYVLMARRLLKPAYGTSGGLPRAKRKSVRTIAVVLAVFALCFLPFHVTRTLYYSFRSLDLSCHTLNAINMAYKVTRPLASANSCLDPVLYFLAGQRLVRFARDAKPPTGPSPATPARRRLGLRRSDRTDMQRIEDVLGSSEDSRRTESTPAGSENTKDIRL
# Protocol: as §1
# [11] = biological target: 168 GPCRs (Homo sapiens, UniProt P41587); test: as above; assay type: cell-based; design: host or cells: PathHunter cell lines
# 168 GPCRs (Homo sapiens, UniProt P41587), sequence (P41587 24-438): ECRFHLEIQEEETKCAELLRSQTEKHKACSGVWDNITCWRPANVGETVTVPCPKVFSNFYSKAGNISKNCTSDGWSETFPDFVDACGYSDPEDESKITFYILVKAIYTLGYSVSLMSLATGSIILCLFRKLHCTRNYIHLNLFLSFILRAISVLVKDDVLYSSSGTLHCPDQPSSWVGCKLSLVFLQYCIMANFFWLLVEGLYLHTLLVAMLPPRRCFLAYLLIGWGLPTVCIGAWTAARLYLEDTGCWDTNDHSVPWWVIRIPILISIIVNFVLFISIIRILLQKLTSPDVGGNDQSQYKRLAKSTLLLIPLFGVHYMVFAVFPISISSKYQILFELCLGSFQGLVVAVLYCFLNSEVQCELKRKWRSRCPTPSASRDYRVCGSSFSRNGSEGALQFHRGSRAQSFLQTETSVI
# Protocol: as §1
# [12] = biological target: 168 GPCRs (Homo sapiens, UniProt P43115); test: as above; assay type: cell-based; design: host or cells: PathHunter cell lines
# 168 GPCRs (Homo sapiens, UniProt P43115), sequence (P43115 whole entry): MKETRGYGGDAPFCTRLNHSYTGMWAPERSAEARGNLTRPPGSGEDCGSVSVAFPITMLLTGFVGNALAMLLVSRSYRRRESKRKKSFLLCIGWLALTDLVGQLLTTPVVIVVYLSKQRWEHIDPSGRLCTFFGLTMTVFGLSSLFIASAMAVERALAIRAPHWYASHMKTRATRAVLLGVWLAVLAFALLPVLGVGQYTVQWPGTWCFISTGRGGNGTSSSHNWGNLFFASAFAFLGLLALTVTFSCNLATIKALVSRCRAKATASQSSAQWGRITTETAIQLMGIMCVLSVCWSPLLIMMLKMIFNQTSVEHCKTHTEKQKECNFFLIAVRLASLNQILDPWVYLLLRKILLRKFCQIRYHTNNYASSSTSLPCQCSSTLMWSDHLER
# Protocol: as §1
# [13] = biological target: 168 GPCRs (Homo sapiens, UniProt P48145); test: as above; assay type: cell-based; design: host or cells: PathHunter cell lines
# 168 GPCRs (Homo sapiens, UniProt P48145), sequence (P48145 whole entry): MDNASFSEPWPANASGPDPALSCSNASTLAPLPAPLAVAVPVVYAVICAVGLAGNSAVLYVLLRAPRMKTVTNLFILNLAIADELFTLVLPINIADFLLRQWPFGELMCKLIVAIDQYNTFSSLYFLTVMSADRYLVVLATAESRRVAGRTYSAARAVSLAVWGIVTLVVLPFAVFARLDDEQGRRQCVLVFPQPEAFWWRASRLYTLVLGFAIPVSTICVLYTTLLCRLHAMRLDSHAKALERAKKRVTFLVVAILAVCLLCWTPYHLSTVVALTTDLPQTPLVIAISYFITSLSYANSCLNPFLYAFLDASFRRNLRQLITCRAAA
# Protocol: as §1
# [14] = biological target: 168 GPCRs (Homo sapiens, UniProt P49019); test: as above; assay type: cell-based; design: host or cells: PathHunter cell lines; conditions: GPR109B
# Protocol: as §1
# [15] = biological target: 168 GPCRs (Homo sapiens, UniProt P49683); test: as above; assay type: cell-based; design: host or cells: PathHunter cell lines; conditions: PRLHR
# Protocol: as §1
# [16] = biological target: 168 GPCRs (Homo sapiens, UniProt P51677); test: as above; assay type: cell-based; design: host or cells: PathHunter cell lines; conditions: CCR3, Agonist
# Protocol: as §1
# [17] = biological target: 168 GPCRs (Homo sapiens, UniProt Q8TDS4); test: as above; assay type: cell-based; design: host or cells: PathHunter cell lines; conditions: GPR109A
# 168 GPCRs (Homo sapiens, UniProt Q8TDS4), sequence (Q8TDS4 whole entry): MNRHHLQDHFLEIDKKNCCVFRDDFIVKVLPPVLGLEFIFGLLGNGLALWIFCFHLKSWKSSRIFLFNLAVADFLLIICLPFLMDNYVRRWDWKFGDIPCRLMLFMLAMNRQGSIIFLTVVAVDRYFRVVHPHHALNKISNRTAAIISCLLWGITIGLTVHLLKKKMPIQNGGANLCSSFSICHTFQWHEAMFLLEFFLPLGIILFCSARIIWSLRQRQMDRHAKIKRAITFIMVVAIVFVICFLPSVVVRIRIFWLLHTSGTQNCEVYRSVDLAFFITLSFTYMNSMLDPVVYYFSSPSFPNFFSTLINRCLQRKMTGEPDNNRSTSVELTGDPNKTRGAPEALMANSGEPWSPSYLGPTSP
# Protocol: as §1
# [18] = biological target: 168 GPCRs (Homo sapiens, UniProt Q969V1); test: as above; assay type: cell-based; design: host or cells: PathHunter cell lines
# 168 GPCRs (Homo sapiens, UniProt Q969V1), sequence (Q969V1 whole entry): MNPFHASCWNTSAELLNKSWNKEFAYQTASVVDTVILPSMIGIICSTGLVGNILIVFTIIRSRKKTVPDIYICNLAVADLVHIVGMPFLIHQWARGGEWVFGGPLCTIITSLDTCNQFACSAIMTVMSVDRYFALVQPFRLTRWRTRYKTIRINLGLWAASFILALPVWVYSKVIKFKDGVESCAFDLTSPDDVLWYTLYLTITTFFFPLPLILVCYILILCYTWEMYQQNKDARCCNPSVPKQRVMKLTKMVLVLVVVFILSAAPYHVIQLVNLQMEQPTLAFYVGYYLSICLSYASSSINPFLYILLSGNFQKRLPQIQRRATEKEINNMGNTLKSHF
# Protocol: as §1
# [19] = biological target: 168 GPCRs (Homo sapiens, UniProt Q96P65); test: as above; assay type: cell-based; design: host or cells: PathHunter cell lines
# Protocol: as §1
# [20] = biological target: 168 GPCRs (Homo sapiens, UniProt Q9UBY5); test: as above; assay type: cell-based; design: host or cells: PathHunter cell lines
# 168 GPCRs (Homo sapiens, UniProt Q9UBY5), sequence (Q9UBY5 whole entry): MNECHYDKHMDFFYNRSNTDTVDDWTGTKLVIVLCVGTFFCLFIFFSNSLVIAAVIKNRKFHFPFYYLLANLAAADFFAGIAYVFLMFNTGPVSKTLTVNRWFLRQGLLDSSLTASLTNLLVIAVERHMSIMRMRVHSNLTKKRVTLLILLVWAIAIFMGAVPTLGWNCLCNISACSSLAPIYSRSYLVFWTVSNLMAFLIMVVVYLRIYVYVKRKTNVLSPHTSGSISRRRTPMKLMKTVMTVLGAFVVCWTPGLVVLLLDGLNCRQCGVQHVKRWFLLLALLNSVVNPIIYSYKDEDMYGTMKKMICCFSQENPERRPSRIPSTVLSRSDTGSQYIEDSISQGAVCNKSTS
# Protocol: as §1
smiles,measurement,setting,value
"CNC(C)C(=O)c1ccc2c(c1)OCO2 (centres unmarked) [methylone, 3,4-methylenedioxy-N-methylcathinone]",locomotor activity (OFT) vs. vehicle,[1]; methylone 5 mg/kg,no effect
same,locomotor activity (OFT) vs. vehicle,[1]; methylone 15 or 30 mg/kg,significant increase in locomotor activity
same,time spent in the center of the open field vs. vehicle,[1],significantly increases the time spent in the center
same,time spent in the center of the open field vs. vehicle,[1]; listed as Methylone,significantly increased center time
same,"genes regulated by methylone that are also regulated by MDMA, amygdala",[2],87%
same,activity at 10 µM,"[3]; FFAR1, Agonist mode, 10 uM",4.5%
same,activity at 1 µM,"[3]; FFAR1, Agonist, 1 uM",1.7%
same,activity at 1 µM,[4]; 1 uM,0%
same,activity at 10 µM,[4]; 10 uM,-0.2%
same,activity at 10 µM,"[5]; Agonist mode, 10 uM",0.7%
same,activity at 1 µM,"[5]; Agonist, 1 uM",-1.2%
same,activity at 1 µM,[6]; 1 uM,-1%
same,activity at 10 µM,[6]; 10 uM,-1.3%
same,activity at 10 µM,"[7]; CXCR1, Agonist mode, 10 uM",0.1%
same,activity at 1 µM,"[7]; CXCR1, Agonist, 1 uM",-0.5%
same,activity at 10 µM,"[8]; Agonist mode, 10 uM",0.2%
same,activity at 1 µM,"[8]; Agonist, 1 uM",-3.5%
same,activity at 10 µM,"[9]; SSTR2, Agonist mode, 10 uM",0.7%
same,activity at 1 µM,"[9]; SSTR2, Agonist, 1 uM",0%
same,activity at 10 µM,"[10]; P2RY2, Agonist mode, 10 uM",-2.7%
same,activity at 1 µM,"[10]; P2RY2, Agonist, 1 uM",-2.1%
same,activity at 10 µM,"[11]; VIPR2, Agonist mode, 10 uM",-0.3%
same,activity at 1 µM,"[11]; VIPR2, Agonist, 1 uM",-0.4%
same,activity at 10 µM,"[12]; PTGER3, Agonist mode, 10 uM",1.9%
same,activity at 1 µM,"[12]; PTGER3, Agonist, 1 uM",4.5%
same,activity at 10 µM,"[13]; NPBWR1, Agonist mode, 10 uM",-1.9%
same,activity at 1 µM,"[13]; NPBWR1, Agonist, 1 uM",1.6%
same,activity at 10 µM,"[14]; Agonist mode, 10 uM",0.5%
same,activity at 1 µM,"[14]; Agonist, 1 uM",1%
same,activity at 10 µM,"[15]; Agonist mode, 10 uM",-0.2%
same,activity at 1 µM,"[15]; Agonist, 1 uM",-2.2%
same,activity at 1 µM,[16]; 1 uM,-6.7%
same,activity at 10 µM,[16]; 10 uM,-7.6%
same,activity at 10 µM,"[17]; Agonist mode, 10 uM",-4.3%
same,activity at 1 µM,"[17]; Agonist, 1 uM",-8.7%
same,activity at 10 µM,"[18]; MCHR2, Agonist mode, 10 uM",-0.7%
same,activity at 1 µM,"[18]; MCHR2, Agonist, 1 uM",-1.5%
same,activity at 10 µM,"[19]; GPR103, Agonist mode, 10 uM",3.13%
same,activity at 1 µM,"[19]; GPR103, Agonist, 1 uM",0.8%
same,activity at 10 µM,"[20]; EDG7, Agonist mode, 10 uM",1.1%
same,activity at 1 µM,"[20]; EDG7, Agonist, 1 uM",3%
